Key:
[1] = target: 5-hydroxytryptamine receptor 4 (Cavia porcellus) (UniProt O70528); test: Evaluated for the agonistic activity against Serotonin 5-HT4 receptor in non-electrically stimulated guinea-pig ileum.; assay type: functional, tissue-based
[2] = target: Serotonin 3 (5-HT3) receptor; test: Antagonistic activity against Serotonin 5-hydroxytryptamine 3 receptor of isolated guinea pig ileum (GPI); assay type: functional, tissue-based, Cavia porcellus
[3] = target: Serotonin 3 (5-HT3) receptor; test: (§1) Evaluated for the antagonistic activity against Serotonin 5-hydroxytryptamine 3 receptor in isolated perfused rabbit heart (RH); assay type: functional, Oryctolagus cuniculus
[4] = target: Serotonin 3 (5-HT3) receptor; test: Antagonistic activity against Serotonin 5-hydroxytryptamine 3 receptor in isolated rabbit vagus nerve (RVN); assay type: functional, tissue-based, Oryctolagus cuniculus
[5] = target: 5-hydroxytryptamine receptor 4 (Cavia porcellus) (UniProt O70528); test: Agonistic activity against Serotonin 5-hydroxytryptamine 4 receptor in low frequency field stimulation of guinea-pig ileum (FSGPI).; assay type: functional, tissue-based
[6] = target: 5-hydroxytryptamine receptor 4 (Cavia porcellus) (UniProt O70528); test: Agonistic activity against Serotonin 5-hydroxytryptamine 4 receptor in non-electrically stimulated guinea-pig ileum.; assay type: functional, tissue-based
[7] = target: T1, Serotonin 3 (5-HT3) receptor (Homo sapiens) (UniProt P46098+A5X5Y0+O95264+Q70Z44+Q8WXA8); test: Evaluated for the antagonistic activity against Serotonin 5-hydroxytryptamine 3 receptor in isolated guinea pig ileum (GPI); assay type: functional, tissue-based; details: Cavia porcellus, target entry is the homologue from another species
[8] = target: T1, Serotonin 3 (5-HT3) receptor (Homo sapiens); test: as §1; assay type: functional; details: Oryctolagus cuniculus; target entry is the homologue from another species
[9] = target: T1, Serotonin 3 (5-HT3) receptor (Homo sapiens); test: Evaluated for the antagonistic activity against Serotonin 5-hydroxytryptamine 3 receptor in isolated rabbit vagus nerve (RVN); assay type: functional, tissue-based; details: Oryctolagus cuniculus, target entry is the homologue from another species
[10] = target: 5-hydroxytryptamine receptor 4 (Cavia porcellus) (UniProt O70528); test: Agonistic activity against Serotonin 5-HT4 receptor in low frequency field stimulation of guinea-pig ileum (FSGPI); assay type: functional, tissue-based
[11] = target: T2, Serotonin 3 receptor (5HT3) (Mus musculus) (UniProt Q9JHJ5+P23979); test: Compound was evaluated for binding to 5-hydroxytryptamine 3 receptor in N1E cells using [3H]- -Tropisetron as radioligand; assay type: cell-based
[12] = target: 5-hydroxytryptamine receptor 4 (Cavia porcellus) (UniProt O70528); details: Ileum
Description: Evaluated for the agonistic activity against 5-HT4 receptor in non-electrically stimulated guinea-pig ileum.

[13] = target: T2, Serotonin 3 receptor (5HT3) (Mus musculus); test: Compound was evaluated for binding to Serotonin 5-hydroxytryptamine 3 receptor in N1E cells using [3H]- -Tropisetron as radioligand; assay type: cell-based
[14] = pKa value was determined; assay type: physicochemical
[15] = organism: Rattus norvegicus; test: Effective dose inhibited the Bezold-Jarisch reflex in rats was determined; assay type: functional
[16] = target: 5-hydroxytryptamine receptor 4 (Cavia porcellus, UniProt O70528); test: Evaluated for the antagonistic activity against Serotonin 5-hydroxytryptamine 4 receptor in non-electrically stimulated guinea-pig ileum.; assay type: functional, tissue-based; details: read-out: pA2 (converted)
[17] = target: 5-hydroxytryptamine receptor 4 (Cavia porcellus) (UniProt O70528); details: Ileum; remark: listed apart in the source
Description: pD2 value in the non-electrically stimulated guinea pig ileum

[18] = target: Serotonin 3 (5-HT3) receptor; test: Evaluated for the antagonistic activity against 5-hydroxytryptamine 3 receptor in isolated perfused rabbit heart (RH); assay type: functional, Oryctolagus cuniculus
[19] = target: Serotonin 3 (5-HT3) receptor; test: Evaluated for the antagonistic activity against 5-hydroxytryptamine 3 receptor in isolated rabbit vagus nerve (RVN); assay type: functional, tissue-based, Oryctolagus cuniculus

T2 sequence (P23979 whole entry, looked up): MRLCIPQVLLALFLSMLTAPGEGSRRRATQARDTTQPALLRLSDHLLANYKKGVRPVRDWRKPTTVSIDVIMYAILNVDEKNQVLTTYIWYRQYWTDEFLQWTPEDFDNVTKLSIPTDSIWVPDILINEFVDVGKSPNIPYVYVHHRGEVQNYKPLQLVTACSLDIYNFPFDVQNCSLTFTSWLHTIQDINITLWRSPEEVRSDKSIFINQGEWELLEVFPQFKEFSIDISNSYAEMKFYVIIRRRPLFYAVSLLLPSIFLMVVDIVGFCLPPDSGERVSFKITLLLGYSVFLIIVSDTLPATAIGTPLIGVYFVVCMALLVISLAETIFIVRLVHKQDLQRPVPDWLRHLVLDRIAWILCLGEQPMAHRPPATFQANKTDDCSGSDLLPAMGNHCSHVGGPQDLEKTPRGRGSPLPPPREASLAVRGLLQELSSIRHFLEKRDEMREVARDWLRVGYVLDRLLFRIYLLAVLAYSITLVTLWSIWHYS
T2 sequence (Q9JHJ5 whole entry, looked up): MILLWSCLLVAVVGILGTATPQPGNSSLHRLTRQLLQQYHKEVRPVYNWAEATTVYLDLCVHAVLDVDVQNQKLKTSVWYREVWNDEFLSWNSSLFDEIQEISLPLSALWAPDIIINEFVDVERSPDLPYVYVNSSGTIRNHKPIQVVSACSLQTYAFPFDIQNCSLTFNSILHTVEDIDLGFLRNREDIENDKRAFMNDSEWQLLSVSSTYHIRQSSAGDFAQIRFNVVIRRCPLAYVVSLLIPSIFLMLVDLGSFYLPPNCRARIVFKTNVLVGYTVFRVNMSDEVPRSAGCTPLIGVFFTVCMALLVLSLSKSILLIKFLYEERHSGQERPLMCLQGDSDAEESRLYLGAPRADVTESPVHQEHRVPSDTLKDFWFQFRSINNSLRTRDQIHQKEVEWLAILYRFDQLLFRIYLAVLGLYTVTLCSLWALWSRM
Sequence of 5-hydroxytryptamine receptor 4 (Cavia porcellus) (O70528 whole entry, the tested form may be a part): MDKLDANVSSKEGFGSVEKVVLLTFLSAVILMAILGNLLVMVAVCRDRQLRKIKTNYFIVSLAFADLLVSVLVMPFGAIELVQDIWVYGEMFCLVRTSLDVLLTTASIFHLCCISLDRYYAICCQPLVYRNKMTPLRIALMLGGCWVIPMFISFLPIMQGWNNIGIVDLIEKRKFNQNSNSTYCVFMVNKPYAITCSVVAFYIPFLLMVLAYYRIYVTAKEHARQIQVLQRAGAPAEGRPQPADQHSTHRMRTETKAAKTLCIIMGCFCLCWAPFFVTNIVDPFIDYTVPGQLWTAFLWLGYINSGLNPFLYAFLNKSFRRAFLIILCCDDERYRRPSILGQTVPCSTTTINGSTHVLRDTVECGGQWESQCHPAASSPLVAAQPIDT
Sequence of 5-hydroxytryptamine receptor 4 (O70528 whole entry): as the sequence (O70528 whole entry, the tested form may be a part) above

CCN(CC)CCOC(=O)c1cc(Cl)c(N)cc1OC
pD2 [1]: 7

COc1cc(N)c(Cl)cc1C(=O)N[C@H]1CCN(CCCOc2ccc(F)cc2)C[C@H]1OC [CISAPRIDE]
pA2 [2]: 7.2
pA2 [3]: 7.1
pA2 [4]: 6.5
pD2 [5]: 6

COc1cc(N)c(Cl)cc1C(=O)NC1CN2CCC1CC2 (configuration not stated)
pD2 [5]: 6.2
pD2 [6]: 5.9

Cc1[nH]c2ccc(O)cc2c1CCN
pD2 [7]: 5.1
pD2 [8]: 5.5
pD2 [9]: 5.6

Cc1[nH]c2ccc(O)cc2c1CC(=N)NCCCN1CCCC1=O
pD2 [10]: 5.8

Nc1c(Cl)cc(C(=O)NC2CN3CCC2CC3)c2nsnc12 (configuration not stated)
pA2 [2]: 7.7
pA2 [4]: 8.9
pD2 [5]: 5.8
pD2 [6]: 5.5

COc1ccc2[nH]ccc2c1C(=O)NC1CN2CCC1CC2 (configuration not stated)
pA2 [2]: 7.2
pD2 [5]: 6.6
pD2 [6]: 7.1

Cc1nccn1CC1CCc2c(c3ccccc3n2C)C1=O (configuration not stated)
pKD [11]: 7.7
pD2 [5]: 5.1

Nc1c(Cl)cc(C(=O)NC2CCN3CCCC2C3)c2ncccc12 (configuration not stated)
pA2 [2]: 6.7
pD2 [5]: 7.5
pD2 [6]: 7.1

N#Cc1[nH]c2ccc(O)cc2c1CCN
pD2 [7]: 5.4
pD2 [8]: 4
pD2 [9]: 7.2

NCCC1CCCc2ccc(O)cc21 (configuration not stated)
pD2 [7]: 5.2
pD2 [8]: 5.7
pD2 [9]: 6

CCN(CC)CCN1CCc2cc(N)c(Cl)cc2C1=O
pD2 [10]: 5.2
pD2 [1]: 5.1

N/C(Cc1c[nH]c2ccc(O)cc12)=N\CCc1c[nH]c2ccc(O)cc12
pD2 [10]: 6.3

NCCc1c[nH]c2ccc(O)cc12
pD2 [10]: 7
pD2 [12]: 7.9

CN1[C@@H]2CC[C@H]1C[C@@H](OC(=O)c1c[nH]c3ccccc13)C2 [TROPISETRON]
pKD [13]: 9.1
pKa [14]: 8.4
ED50 [15]: 0.72 µg/kg
Kb [16]: 2000 nM
pD2 [17]: 5.7

CCN(CC)Cc1coc(-c2cc(Cl)c(N)cc2OC)n1
pD2 [10]: 6.1
pD2 [1]: 6

Nc1c(Cl)cc(C(=O)NC2CCN3CCCC2C3)c2nsnc12 (configuration not stated)
pA2 [2]: 6.8
pA2 [4]: 7.7
pD2 [5]: 7.2
pD2 [6]: 6

CCN(CC)CCNC(=O)c1cc(Cl)c(N)cc1OC [METOCLOPRAMIDE]
pA2 [2]: 5.2
pA2 [3]: 7.1
pD2 [5]: 5.5

COc1cc(N)c(Cl)cc1C(=O)N[C@H]1CCN2CCC[C@@H]1C2
pA2 [3]: 8.6
pD2 [5]: 7.1
pD2 [6]: 5.7

NCCc1ccnc2ccc(O)cc12
pD2 [7]: 4.5
pD2 [9]: 5.8

Nc1c(Cl)cc(C(=O)NC2CN3CCC2CC3)c2ncccc12 (configuration not stated)
pA2 [2]: 7.9
pA2 [4]: 9
pD2 [5]: 7.2
pD2 [6]: 6

CN1C2CC(OC(=O)c3c[nH]c4ccccc34)CC1C1OC12 (configuration not stated)
pA2 [2]: 8.8
pKD [13]: 9.2
pA2 [18]: 11
pA2 [19]: 10.6
pD2 [5]: 0
pKa [14]: 6.64
Kb [16]: 501 nM

O=C(CC1CC2CCC(C1)N2)c1c[nH]c2cc(O)ccc12 (configuration not stated)
pA2 [2]: 6
pD2 [8]: 6
pD2 [9]: 7

— ChEMBL document CHEMBL1126420, “Design and synthesis of novel ligands for the 5-HT3 and the 5-HT4 receptor” (Bioorg Med Chem Lett, 1992)
